From the NIST ThermoML archive (doi:10.1016/j.jct.2015.10.001)

Tests used:
[1] = 101.33 kPa, Liquid; for electrical conductivity: Direct current cell with electrodes; for mass density: Vibrating tube method
[2] = mn = molality of the nth substance listed, in mol/kg; conditions: 100 kPa, Liquid, Capillary tube (Ostwald / Ubbelohde) method, m2 = 0

O [water]
[1], Capillary tube (Ostwald / Ubbelohde) method
Conditions	viscosity [mPa·s]
293.15 K	1.003
298.15 K	0.89
303.15 K	0.797
308.15 K	0.719
313.15 K	0.653

CCCCn1cc[n+](C)c1.O=C([O-])c1ccccc1O [1-butyl-3-methylimidazolium salicylate]
[1], Cone and plate viscometry
Conditions	viscosity [mPa·s]
293.15 K	1194.1
298.15 K	777.63
303.15 K	501.42
308.15 K	338.14
313.15 K	240
318.15 K	167.97
323.15 K	127.06

[1]
Conditions	electrical conductivity [S/m]	mass density [kg/m3]
293.15 K	0.0182	1152.27
298.15 K	0.0281	1149.05
303.15 K	0.0447	1145.65
308.15 K	0.0692	1142.22
313.15 K	0.0965	1138.76
318.15 K	0.156	–
323.15 K	0.22	–

O [water] + CCCCn1cc[n+](C)c1.O=C([O-])c1ccccc1O
[2]
Conditions	viscosity [mPa·s]
293.15 K	1.003
298.15 K	0.89
303.15 K	0.797
308.15 K	0.719
313.15 K	0.653
